Literature values in paper PMC5314429, “Enhancing PET Signal at Target Tissue in Vivo: Dendritic and Multimeric Tris(hydroxypyridinone) Conjugates for Molecular Imaging of αvβ3 Integrin Expression with Gallium-68” (Bioconjugate Chemistry, 2016).

Parameters: method as in PMID 16821777

CC(=O)NC(CCC(=O)NCc1c(O)c(=O)cc(C)n1C)(CCC(=O)NCc1c(O)c(=O)cc(C)n1C)CCC(=O)NCc1c(O)c(=O)cc(C)n1C [THP-Ac]
log K1 for Fe^3+: 32.52 | pFe^3+ (pH 7.4, [Fe^3+] = 10^–6 M, [Ligand] = 10^–5 M): 28.47
